Laboratory results taken from patent US9101613B2, “Methods for treating neurological disease” (Neurim Pharmaceuticals (1991) Ltd., priority 2006, dated 2015).
Like-named read-outs stand apart in the source and are kept apart here.

Key:
3T3-L1 adipocytes = assay: 2-[3H]-deoxy-d-glucose uptake in FFA-treated 3T3-L1 adipocyte model; assay type: cell-based; settings: Insulin 20 nM + FFA 300 μM (3 h) + substance 10 nM
Method: Adipocytes were glucose-starved for 1 h in Hepes-salt buffer containing 2% FFA-free BSA. FFA (free fatty acids) were then added to the cells at the indicated concentrations (300 μM) for the indicated times (3 h). 10 min before the end of the FFA treatment, the cells were stimulated with insulin (20 nM)/melatonin (10 nM)/test compounds (10 nM) at 37° C. 2-[^3H]-deoxy-d-glucose at 1 μCi/mL and 0.1 mM unlabeled 2-deoxyglucose in KRP-HEPES buffer was added and cells were incubated for 10 min at room temperature. Non-specific glucose uptake was measured by parallel incubations in the presence of 10 μM cytochalasin B, which blocks transporter-mediated glucose uptake, and was subtracted from total uptake in each assay. Cells were then washed three times with ice-cold phosphate buffered saline (PBS) and solubilized in 1M NaOH for 20 minutes. The sample was then counted using a scintillation counter. 2-[^3H]-deoxy-d-glucose uptake was assayed in triplicates for each condition in at least 3 independent experiments. 2-[^3H]-deoxy-d-glucose uptake (counts per minute-cpm) are presented as mean+SE of triplicates in a representative experiment or results of three independent experiments. ANOVA test was used with significance of P<0.05 (Table 7).

5-HT1B receptor = target: T1, 5-HT1B receptor (Homo sapiens, UniProt P28222); assay: Serotonin receptor binding, [125I] Cyanopindolol, CHO-K1 membranes
T1 construct: expressed in transfected cells; host or cells: CHO-K1
T1 sequence (P28222 whole entry): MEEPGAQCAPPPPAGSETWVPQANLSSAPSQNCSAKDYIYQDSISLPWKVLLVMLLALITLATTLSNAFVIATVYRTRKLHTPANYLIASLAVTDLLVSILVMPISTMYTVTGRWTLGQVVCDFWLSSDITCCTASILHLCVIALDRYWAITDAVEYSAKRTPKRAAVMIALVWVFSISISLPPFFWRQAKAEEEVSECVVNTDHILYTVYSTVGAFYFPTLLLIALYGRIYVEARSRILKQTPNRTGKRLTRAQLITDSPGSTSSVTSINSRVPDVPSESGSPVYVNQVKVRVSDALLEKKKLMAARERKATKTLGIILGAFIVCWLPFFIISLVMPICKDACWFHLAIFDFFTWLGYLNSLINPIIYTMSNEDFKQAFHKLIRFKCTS
Method: (§1) Aliquots of suspended membranes of human recombinant CHO-K1 cells stably expressing human 5-HT1A, 5-HT2A, 5-HT1B, 5-HT2B, 5-HT2C, 5-HT4, 5-HT6 or 5-HT7 receptors were pre-incubated at 25° C. with 1.5 nM [^3H] 8-OH-DPAT (5-HT1A), 1.5 nM [^3H] Ketanserin (5-HT2A), 0.01 nM [^125I] Cyanopindolol (5-HT1B), 1 nM [^3H] Mesulergine (5-HT2c), 0.7 nM [^3H] GR-113808 (5-HT4) or at 37° C. 1.2 nM [^3H] LSD (5-HT2B, 5-HT6 and 5-HT7) in buffer (50 mM Tris-HCl, pH 7.7) alone or in the presence of 1 nM, 10 nM, 0.1 μM, 1 μM, and 10 μM of N-[2-(5-methoxy-indol-3-yl)-ethyl]-commenamide, N-[2-(5-methoxy-indol-3-yl)-ethyl]-coumalylamide, N-[2-(5-methoxy-indol-3-yl)-ethyl]-comanilamide, N-[2-(5-methoxy-indol-3-yl)-ethyl]-2-methoxy-commenamide or N-[2-(5-methoxy-indol-3-yl)-ethyl]-chelidonamide for 60 minutes. The binding reaction was terminated and washed with 4 ml ice-cold 50 mM Tris-HCl buffer by vacuum filtration. Membranes were then collected, and the filters containing the bound ligands were assayed for the amount of radioactivity in a b-counter. Non-specific binding was evaluated using a reaction with 10 μM metergoline (5-HT1A), 1 μM mianserin (5-HT2A and 5-HT2c) or 10 μM serotonin (5-HT1B, 5-HT2B, 5-HT4, 5-HT6 and 5-HT7).

CD1 mice = assay: Motimeter assay (motor activity and rearing); assay type: in vivo; settings: 100 mg/kg i.p.; for effect on motor activity and rearing: 30-35 min and 60-65 min after treatment
Method: Mice were starved for 16 hrs before treatment. Male CD1 mice, weighing 25-30 g, were treated intraperitoneally with melatonin, N-[2-(5-methoxy-indol-3-yl)-ethyl]-comanilamide or N-[2-(5-methoxy-indol-3-yl)-ethyl]-commenamide in a dose of 100 mg/kg. The horizontal (i.e. locomotion) and vertical (i.e. rearing) movements were measured for 5 minutes two times, 30 and 60 min after treatment. Eight mice/group were used. The 4-channel activity meter is a square-shaped frame containing transparent infra-red permeable acrylic cages. The frames feature two pairs of light-beam strips for measuring horizontal movements, and two pairs for measuring rearing. Each strip is equipped with 16 infra-red sensors.

5-HT1A receptor = target: T2, 5-HT1A receptor (Homo sapiens, UniProt P08908); assay: Serotonin receptor binding, [3H] 8-OH-DPAT, CHO-K1 membranes
T2 construct: expressed in transfected cells; host or cells: CHO-K1
T2 sequence (P08908 1-422): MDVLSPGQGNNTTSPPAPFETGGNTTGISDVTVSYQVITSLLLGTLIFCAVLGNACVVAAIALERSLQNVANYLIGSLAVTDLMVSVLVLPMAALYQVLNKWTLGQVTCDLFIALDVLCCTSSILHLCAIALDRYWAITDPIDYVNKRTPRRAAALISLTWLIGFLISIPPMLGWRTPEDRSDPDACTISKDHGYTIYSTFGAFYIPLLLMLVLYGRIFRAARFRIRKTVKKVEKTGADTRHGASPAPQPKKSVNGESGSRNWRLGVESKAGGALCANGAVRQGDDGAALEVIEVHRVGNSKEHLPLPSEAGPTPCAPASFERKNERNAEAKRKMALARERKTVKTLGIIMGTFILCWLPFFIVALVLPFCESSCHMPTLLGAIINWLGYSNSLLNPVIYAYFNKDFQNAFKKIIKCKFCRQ
Method: as §1

5-HT2C receptor = target: T3, 5-HT2C receptor (Homo sapiens, UniProt P28335); assay: Serotonin receptor binding, [3H] Mesulergine, CHO-K1 membranes
T3 construct: expressed in transfected cells; host or cells: CHO-K1
T3 sequence (P28335 33-458): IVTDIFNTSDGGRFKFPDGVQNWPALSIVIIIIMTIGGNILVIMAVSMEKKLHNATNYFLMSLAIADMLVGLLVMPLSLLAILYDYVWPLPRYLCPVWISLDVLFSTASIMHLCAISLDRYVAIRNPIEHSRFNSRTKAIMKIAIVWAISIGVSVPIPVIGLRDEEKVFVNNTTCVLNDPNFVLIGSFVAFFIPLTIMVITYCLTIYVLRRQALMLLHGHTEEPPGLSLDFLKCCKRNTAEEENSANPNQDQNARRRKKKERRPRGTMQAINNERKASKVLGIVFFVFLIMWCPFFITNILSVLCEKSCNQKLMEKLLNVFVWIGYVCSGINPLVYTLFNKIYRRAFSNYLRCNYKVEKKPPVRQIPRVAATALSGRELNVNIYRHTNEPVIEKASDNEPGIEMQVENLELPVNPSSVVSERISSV
Method: as §1

SMILES | 2-[3H]-deoxy-d-glucose uptake (cpm) (3T3-L1 adipocytes) | affinity to 5-HT1B (5-HT1B receptor) | IC50 (5-HT1B receptor; read-out: 5-HT1B IC50) | Ki (5-HT1B receptor; read-out: 5-HT1B KI) | effect on motor activity and rearing (CD1 mice) | IC50 (5-HT1A receptor; read-out: 5-HT1A IC50) | Ki (5-HT1A receptor; read-out: 5-HT1A KI) | motor activity (horizontal movement) changes (%) 30 min (CD1 mice; 30 min, vs vehicle) | motor activity (horizontal movement) 30 min Means ± SE (CD1 mice; 30 min after treatment, 5 min measurement) | motor activity (horizontal movement) changes (%) 60 min (CD1 mice; 60 min, vs vehicle) | motor activity (horizontal movement) 60 min Means ± SE (CD1 mice; 60 min after treatment, 5 min measurement) | IC50 (5-HT2C receptor; read-out: 5-HT2C IC50) | Ki (5-HT2C receptor; read-out: 5-HT2C KI) | affinity to 5-HT1A (5-HT1A receptor) | IC50 (5-HT1B receptor) | Ki (5-HT1B receptor) | IC50 (5-HT2C receptor) | Ki (5-HT2C receptor) | IC50 (5-HT1A receptor) | Ki (5-HT1A receptor)
COc1ccc2[nH]cc(CCNC(=O)c3cc(=O)cco3)c2c1 [N-[2-(5-methoxy-indol-3-yl)-ethyl]-comanilamide] | 1492 cpm | moderate affinity | 2140 nM | 2030 nM | did not change significantly the motor activity and rearing | 1950 nM | 1110 nM |  |  |  |  |  |  |  |  |  |  |  |  | 
COc1ccc2[nH]cc(CCNC(=O)c3cc(=O)c(OC)co3)c2c1 [N-[2-(5-methoxy-indol-3-yl)-ethyl]-2-methoxy-commenamide] | 1522 cpm |  | 5440 nM | 5160 nM |  | 1930 nM | 1100 nM |  |  |  |  |  |  |  |  |  |  |  |  | 
COc1ccc2[nH]cc(CCNC(=O)c3ccc(=O)oc3)c2c1 [N-[2-(5-methoxy-indol-3-yl)-ethyl]-coumalylamide] | 1494 cpm | moderate affinity | 1640 nM | 1550 nM | significantly decreased both the motor activity and rearing | 1970 nM | 650 nM | −63.1% | 158.8 ± 37.0 | −80.3% | 62.3 ± 16.6 |  |  |  |  |  |  |  |  | 
COc1ccc2[nH]cc(CCNC(=O)c3cc(=O)cc(C(=O)O)o3)c2c1 [N-[2-5-methoxy-indol-3-yl)-ethyl]-chelidonamide] | 1407 cpm | moderate affinity |  |  |  | 1030 nM | 580 nM |  |  |  |  | 11200 nM | 5800 nM | moderate affinity |  |  |  |  |  | 
COc1ccc2[nH]cc(CCNC(=O)c3cc(=O)c(O)co3)c2c1 [N-[2-(5-methoxy-indol-3-yl)-ethyl]-commenamide] | 1530 cpm |  |  |  | did not change significantly the motor activity and rearing |  |  |  |  |  |  |  |  | moderate affinity | 3910 nM | 3710 nM | 7200 nM | 3800 nM | 680 nM | 390 nM
